The results in this text go back to patent publication US20100298302A1, “NOVEL PROTEIN KINASE MODULATORS” (priority 2009, published 2010).

For test [1], the target named is recombinant PIM-1 (Homo sapiens, UniProt P11309). As to the kind of experiment: PIM-1 kinase assay. Type of test: biochemical. Particulars: for inhibition at 0.5 µM: 500 nM compound, read-out: PIM1: % inh 500 nM. The procedure: The following procedure was used to assay the PIM-1 kinase activity of compounds of the invention. Other methods for assaying PIM-1 and other PIM kinases, as well as methods to assay for activity against various kinases known in the art.
In a final reaction volume of 50 ul, recombinant PIM-1 (1 ng) was incubated with 12 mM MOPS pH 7.0, 0.4 mM EDTA, glycerol 1%, brij 35 0.002%, 2-mercaptoethanol 0.02%, BSA 0.2 mg/ml, 100 uM KKRNRTLTK, 10 mM MgAcetate, 15 uM ATP, [γ-^33P-ATP] (specific activity approx. 500 cpm/pmol), DMSO 4% and test inhibitor compound at the required concentration. The reaction was initiated by the addition of the Magnesium ATP mixture. After 40 min incubation at 23° C., the reactions were quenched by the addition of 100 ul 0.75% Phosphoric acid, and the labeled peptide collected by filtration through a phosphocellulose filter plate. The plate was washed 4 times with 0.075% phosphoric acid (100 ul per well) and then, after the addition of scintillation fluid (20 ul per well), the counts were measured by a scintillation counter.

For test [2], the target named is T1, recombinant human CK2 (Homo sapiens, UniProt P68400).
T1 construct: purchased Upstate
As to the kind of experiment: cell-free CK2 assay. Type of test: biochemical. As for the experimental part:
Modulatory activity of compounds described herein was assessed in vitro in cell-free CK2 assays by the following method.
Test compounds in aqueous solution were added at a volume of 10 microliters, to a reaction mixture comprising 10 microliters Assay Dilution Buffer (ADB; 20 mM MOPS, pH 7.2, 25 mM beta-glycerolphosphate, 5 mM EGTA, 1 mM sodium orthovanadate and 1 mM dithiothreitol), 10 microliters of substrate peptide (RRRDDDSDDD, dissolved in ADB at a concentration of 1 mM), 10 microliters of recombinant human CK2 (25 ng dissolved in ADB; Upstate). Reactions were initiated by the addition of 10 microliters of ATP Solution (90% 75 mM MgCl2, 75 micromolar ATP dissolved in ADB; 10% [γ-^33P]ATP (stock 1 mCi/100 μl; 3000 Ci/mmol (Perkin Elmer) and maintained for 10 minutes at 30 degrees C. The reactions were quenched with 100 microliters of 0.75% phosphoric acid, then transferred to and filtered through a phosphocellulose filter plate (Millipore). After washing each well 5 times with 0.75% phosphoric acid, the plate was dried under vacuum for 5 min and, following the addition of 15 ul of scintilation fluid to each well, the residual radioactivity was measured using a Wallac luminescence counter.

For test [3], the target named is recombinant human PIM2 (Homo sapiens, UniProt Q9P1W9). As to the kind of experiment: PIM-2 kinase assay. It counts as biochemical. The procedure: Test compounds dissolved and diluted in DMSO (2 μl) were added to a reaction mixture comprising 10 μl of 5× Reaction Buffer (40 mM MOPS pH 7.0, 5 mM EDTA), 10 μl of recombinant human PIM2 solution (4 ng PIM-2 dissolved in dilution buffer (20 mM MOPS pH 7.0; EDTA 1 mM; 5% Glycerol; 0.01% Brij 35; […]; […] 2-mercaptoethanol; 1 mg/ml BSA)) and 8 ul of water. Reactions were initiated by the addition of 10 ul of ATP Solution ([…] (15 mM MgCl2; 75 uM ATP) 1% ([γ-33P]ATP: Stock 1 mCi/100 μl; 3000 Ci/mmol (Perkin Elmer)) and 10 ul of substrate peptide solution (RSRSSYPAGT, dissolved in water at a concentration of 1 mM), Reactions were maintained for 10 min at 30° C. The reactions were quenched with 100 ul of 0.75% Phosphoric acid, then transferred to and filtered through a Phosphocellulose filter plate (Millipore, MSPH-N6B-50). After washing each well 4 times with 0.75% Phosphoric acid, scintillation fluid (20 uL) was added to each well and the residual radioactivity was measured using a Wallac luminescence counter.

Test [4] relates to K-562 human chronic myelogenous leukemia (CML) cells. Kind of test: Alamar Blue cell proliferation assay, K-562. It counts as cell-based. Particulars: K562, Table 4. The procedure:
(§1) A representative cell-proliferation assay protocol using Alamar Blue dye (stored at 4° C., use 20 ul per well) is described hereafter.
(§2) a. Split and trypsinize cells.
(§3) b. Count cells using hemocytometer.
(§4) c. Plate 4,000-5,000 cells per well in 100 μl of medium and seed into a 96-well plate according to the following plate layout. Add cell culture medium only to wells B10 to B12. Wells B1 to B9 have cells but no compound added.
(§5) d. Add 100 μl of 2× drug dilution to each well in a concentration shown in the plate layout above. At the same time, add 100 μl of media into the control wells (wells B10 to B12). Total volume is 200 μl/well.
(§6) e. Incubate four (4) days at 37° C., 5% CO2 in a humidified incubator.
(§7) f. Add 20 μl Alamar Blue reagent to each well.
(§8) g. Incubate for four (4) hours at 37° C., 5% CO2 in a humidified incubator.
(§9) h. Record fluorescence at an excitation wavelength of 544 nm and emission wavelength of 590 nm using a microplate reader.
(§10) In the assays, cells are cultured with a test compound for approximately four days, the dye is then added to the cells and fluorescence of […] dye is detected after approximately four hours. Different types of cells can be utilized in the assays (e.g., HCT-116 human colorectal carcinoma cells, PC-3 human prostatic cancer cells, MDA-MB231 human breast cancer cells, K-562 human chronic myelogenous leukemia (CML) cells, MiaPaca human pancreatic carcinoma cells, MV-4 human acute myeloid leukemia cells, and BxPC3 human pancreatic adenocarcinoma cells).

Test [5] deals with MV-4-11. Kind of test: Alamar Blue cell proliferation assay, MV-4-11. Particulars: Homo sapiens, MV4-11; Table 4. It counts as cell-based. The procedure:
as §1, §2, §3, §4, §5, §6, §7, §8, §9, §10
On the technique in general: The colour change of resazurin is a common sign of viable cells or microbes.

Where [6] appears, read: 15 μM ATP, read-out: PIM1: IC50 (15 μM ATP).

Read-outs that look alike come from different tables or passages of the source.

In general, IC50 refers to the midpoint of a concentration-inhibition curve.

T1 sequence (P68400 whole entry): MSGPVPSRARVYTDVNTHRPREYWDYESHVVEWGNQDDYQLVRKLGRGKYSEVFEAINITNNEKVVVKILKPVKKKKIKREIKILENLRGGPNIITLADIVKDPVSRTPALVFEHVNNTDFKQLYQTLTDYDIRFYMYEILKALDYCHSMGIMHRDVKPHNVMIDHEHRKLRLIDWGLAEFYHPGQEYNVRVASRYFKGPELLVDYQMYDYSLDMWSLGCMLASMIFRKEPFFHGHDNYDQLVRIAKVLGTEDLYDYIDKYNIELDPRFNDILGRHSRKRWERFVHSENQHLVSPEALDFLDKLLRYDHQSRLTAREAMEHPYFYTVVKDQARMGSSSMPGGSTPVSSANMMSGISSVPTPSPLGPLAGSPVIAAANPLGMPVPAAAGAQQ
T1 sequence (P67870 whole entry partner): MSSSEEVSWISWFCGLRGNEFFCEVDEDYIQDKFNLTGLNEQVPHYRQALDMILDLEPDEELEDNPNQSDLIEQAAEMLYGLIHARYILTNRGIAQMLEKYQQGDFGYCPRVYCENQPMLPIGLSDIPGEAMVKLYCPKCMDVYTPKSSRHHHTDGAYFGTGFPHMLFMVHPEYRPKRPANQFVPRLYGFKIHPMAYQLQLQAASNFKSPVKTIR
Sequence of recombinant human PIM2 (Q9P1W9 whole entry): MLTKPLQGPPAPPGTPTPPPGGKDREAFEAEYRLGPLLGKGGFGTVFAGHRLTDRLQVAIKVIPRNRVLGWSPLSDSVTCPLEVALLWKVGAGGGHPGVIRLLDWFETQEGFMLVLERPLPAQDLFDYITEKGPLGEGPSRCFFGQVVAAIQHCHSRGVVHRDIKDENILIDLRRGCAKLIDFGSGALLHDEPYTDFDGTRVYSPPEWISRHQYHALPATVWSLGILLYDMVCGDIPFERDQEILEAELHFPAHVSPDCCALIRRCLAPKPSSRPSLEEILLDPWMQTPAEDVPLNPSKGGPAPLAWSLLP
Sequence of recombinant PIM-1 (P11309 whole entry): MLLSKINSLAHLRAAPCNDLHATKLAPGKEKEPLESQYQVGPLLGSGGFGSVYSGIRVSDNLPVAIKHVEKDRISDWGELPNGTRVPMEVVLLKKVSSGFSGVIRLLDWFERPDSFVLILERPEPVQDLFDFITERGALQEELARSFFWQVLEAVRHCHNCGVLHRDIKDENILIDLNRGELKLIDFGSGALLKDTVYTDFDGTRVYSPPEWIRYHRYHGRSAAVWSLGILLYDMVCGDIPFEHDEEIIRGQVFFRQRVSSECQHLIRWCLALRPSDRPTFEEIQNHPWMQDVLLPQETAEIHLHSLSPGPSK

Take `Brc1cccc(Nc2nc3c(-c4nnc[nH]4)cccc3n3cccc23)c1`: the IC50 in test [1] (Table 5, read-out: PIM1 IC50) is less than 0.1 µM; in test [2], less than 0.1 µM; in test [3], less than 0.1 µM.
For the compound `c1ccc(Nc2nc3cc(-c4nnc[nH]4)ccc3n3cccc23)cc1`, in test [1], the inhibition at 0.5 µM is -24.5%.
Same read-out and setting: to `O=C(O)c1ccc2c(c1)nc(NCCC(F)(F)F)c1cccn12` belongs 46%.
The same measure, in the same setting: to `COc1ccc(Nc2nc3cc(-c4nnn[nH]4)ccc3n3cccc23)cc1Cl` belongs 19.4%; to `O=C(O)c1ccc2c(c1)[nH]c(=O)c1cccn12`, 25.6%.
Same read-out and setting: to `CCOC(=O)c1ccc2c(c1)nc(Nc1ccc(F)c(Cl)c1)c1cccn12` belongs -76.2%.
Consider `COc1ccc(Sc2nc3c(-c4nnc[nH]4)cccc3n3cccc23)cc1`, for which the IC50 was less than 0.1 µM in test [1] (Table 5, read-out: PIM1 IC50); less than 0.1 µM in test [2]; less than 5 µM in test [3].
`N#Cc1ccc2c(c1)nc(Cl)c1cccn12`: in test [1], the inhibition at 0.5 µM is -35.4%.
Take `O=C(O)c1cccc2c1[nH]c(=O)c1cccn12`: the IC50 in test [1] (Table 5, read-out: PIM1 IC50) was more than 2.5 µM; in test [2] it was less than 5 µM; in test [3] it was more than 2.5 µM.
With `CCOC(=O)c1cccc2c1nc(N(C(=O)OC(C)(C)C)c1ccccc1F)c1cccn12`, the IC50 was more than 2.5 µM in test [1] (Table 5, read-out: PIM1 IC50); more than 5 µM in test [2]; more than 2.5 µM in test [3].
For `O=C(O)c1ccc2c(c1)nc(NCCO)c1cccn12`, the inhibition at 0.5 µM in test [1] worked out at 35%.
For `OCCNc1nc2cc(-c3nnn[nH]3)ccc2n2cccc12`, the inhibition at 0.5 µM in test [1] is 67.9%. Also, the IC50 in test [1] (setting [6]) is 0.273 µM; in test [4] it was more than 10 µM; in test [5], more than 10 µM.
On to `O=c1[nH]c2cc(-c3nnn[nH]3)ccc2n2cccc12`, for which the inhibition at 0.5 µM in test [1] is 41.8%.
Regarding `CN1CCCC(Nc2nc3cc(C(=O)O)ccc3n3cccc23)C1` (centres unmarked), the inhibition at 0.5 µM in test [1] stood at 69.5%. The values for the IC50 in test [1] (setting [6]), in test [4] and in test [5] were 0.33 µM, more than 10 µM and more than 10 µM, respectively.
Turning to `O=C(c1ccc2c(c1)[nH]c(=O)c1cccn12)N1CCCNCC1`, in test [1], the inhibition at 0.5 µM was -0.195%.
The same measure, in the same setting: the figure for `COc1cccc(Nc2nc3cc(-c4nnn[nH]4)ccc3n3cccc23)c1` is 15%; for `NC(=O)c1ccc2c(c1)[nH]c(=O)c1cccn12` it is -22.5%.
Still for that read-out and setting: the figure for `CN(C)CCNC(=O)c1ccc2c(c1)[nH]c(=O)c1cccn12` is -13.9%.
As for `O=C(O)c1ccc2c(c1)nc(Nc1ccccc1)c1cccn12`, the inhibition at 0.5 µM in test [1] came to 73.1%. Besides, the IC50 is 0.13 µM in test [1] (setting [6]), more than 10 µM in test [4] and 0.483 µM in test [5].
Consider `N#Cc1ccc2c(c1)nc(NCc1ccccc1)c1cccn12`, for which the inhibition at 0.5 µM in test [1] was -35%.
Consider `CCN1CCCC1CNc1nc2cc(-c3nnn[nH]3)ccc2n2cccc12` (centres unmarked), for which, in test [1], the inhibition at 0.5 µM was 81.5%. In addition, the results for the IC50 in test [1] (setting [6]), in test [4] and in test [5] were 0.097 µM, more than 10 µM and more than 10 µM, respectively.
Regarding `c1ccc(CNc2nc3cc(-c4nnn[nH]4)ccc3n3cccc23)cc1`, the inhibition at 0.5 µM in test [1] worked out at 14.4%.
On the same count and under the same terms, the figure for `COc1ccc(OC)c(Nc2nc3cc(-c4nnn[nH]4)ccc3n3cccc23)c1` is 10.9%; for `CN1CCN(C(=O)c2ccc3c(c2)[nH]c(=O)c2cccn23)CC1` it is -31.9%; for `CC(C)(C)OC(=O)N1CCN(C(=O)c2ccc3c(c2)[nH]c(=O)c2cccn23)CC1` it is -27.1%.
On to `O=C(O)c1ccc2c(c1)nc(NCCN1CCOCC1)c1cccn12`, for which the inhibition at 0.5 µM in test [1] was found to be 18.9%.
On to `O=C(O)c1cccc2c1nc(Nc1ccccc1F)c1cncn12`, for which the results for the IC50 in test [2] and in test [3] were less than 1 µM and more than 2.5 µM, respectively.
For `CCN1CCCC1CNc1nc2cc(C(=O)O)ccc2n2cccc12` (centres unmarked), the inhibition at 0.5 µM in test [1] amounted to 89.7%. Further, the IC50 in test [1] (setting [6]) was 0.2 µM; in test [4], more than 10 µM; in test [5] it was more than 10 µM.
As for `O=C(O)c1ccc2c(c1)nc(NCCN1CCCC1)c1cccn12`, in test [1], the inhibition at 0.5 µM came out at 72.5%. The IC50 in test [1] (setting [6]) was 0.504 µM; in test [4] it was more than 10 µM; in test [5] it was more than 10 µM.
For the compound `CC(C)(C)OC(=O)N1CCCN(C(=O)c2ccc3c(c2)[nH]c(=O)c2cccn23)CC1`, in test [1], the inhibition at 0.5 µM is -46.9%.
Consider `O=C(O)c1ccc2c(c1)nc(NCCN1CCCCC1)c1cccn12`, for which the inhibition at 0.5 µM in test [1] was 98.8%. The IC50 is 0.372 µM in test [1] (setting [6]), more than 10 µM in test [4] and more than 10 µM in test [5].
With `CN(C)CCNc1nc2cc(-c3nnn[nH]3)ccc2n2cccc12`, the inhibition at 0.5 µM in test [1] was 63.5%. In addition, the results for the IC50 in test [1] (setting [6]), in test [4] and in test [5] were 0.486 µM, more than 10 µM and more than 10 µM, respectively.
For `CC(=O)N1CCN(C(=O)c2ccc3c(c2)[nH]c(=O)c2cccn23)CC1`, in test [1], the inhibition at 0.5 µM is -8.35%.
Take `O=C(c1ccc2c(c1)[nH]c(=O)c1cccn12)N1CCNCC1`: the inhibition at 0.5 µM in test [1] is -11.8%.
As to `c1ccc(Nc2nc3cc(-c4nnn[nH]4)ccc3n3cccc23)cc1`, the inhibition at 0.5 µM in test [1] was 75.9%. The IC50 in test [1] (setting [6]) was 0.164 µM; in test [4], more than 10 µM; in test [5], more than 10 µM.
With `CN(C)CCNc1nc2cc(C(=O)O)ccc2n2cccc12`, in test [1], the inhibition at 0.5 µM turned out to be 76.5%. Also, the IC50 in test [1] (setting [6]) is 0.173 µM; in test [4], more than 10 µM; in test [5], 0.688 µM.
Take `NC(=O)c1cccc2c1nc(Nc1ccccc1F)c1cncn12`: the IC50 in test [2] and in test [3] was less than 0.1 µM in each case.
As to `CCOC(=O)c1ccc2c(c1)[nH]c(=O)c1cccn12`, the inhibition at 0.5 µM in test [1] was found to be 14%.
On the same count and under the same terms, the figure for `N#Cc1ccc2c(c1)[nH]c(=O)c1cccn12` is -28.6%.
Regarding `CCOC(=O)c1cccc2c1[nH]c(=O)c1nccn12`, the IC50 in test [2] was more than 5 µM; in test [3] it was more than 2.5 µM.
With `Fc1ccc(Nc2nc3cc(-c4nnn[nH]4)ccc3n3cccc23)cc1`, the inhibition at 0.5 µM in test [1] came out at 73.2%. Moreover, the results for the IC50 in test [1] (setting [6]), in test [4] and in test [5] were 0.365 µM, more than 10 µM and more than 10 µM, respectively.
In the case of `CCOC(=O)c1cccc2c1nc(Nc1ccccc1F)c1cncn12`, the results for the IC50 in test [2] and in test [3] were less than 5 µM and more than 2.5 µM, respectively.
In the case of `CCOC(=O)c1cccc2c1[nH]c(=O)c1cncn12`, the IC50 in test [2] is less than 5 µM; in test [3], more than 2.5 µM.
